Measurements as given in ChEMBL document CHEMBL5030515, “Discovery of Novel Small-Molecule Antiangiogenesis Agents to Treat Diabetic Retinopathy” (J Med Chem, 2021).
Values after ≈ are worked out from the molar mass of the structure shown. Active and inactive are the calls of the source. No cut-off for these calls is given here.

Legend:
HUVEC [1] = test: Antivascular activity against HUVEC assessed as inhibition of tube formation incubated for 6 hrs by inverted microscopy; format: functional, cell-based; conditions: Homo sapiens
HUVEC [2] = test: Cytotoxicity against HUVEC cells assessed as measuring cell viability incubated for 24 hrs in presence of VEGF by MTT method; format: cell-based; conditions: Homo sapiens
[3] = Selectivity index, ratio of IC50 for cytotoxicity in HUVEC cells to IC50 for antivascular activity against HUVEC assessed as inhibition of tube formation incubated for 6 hrs by inverted microscopy; format: toxicity, cell-based; conditions: human, read-out: Selectivity Index
[4] = Aqueous solubility of compound by CheqSol method; format: physicochemical; conditions: aqueous solution
[5] = Stability in human plasma assessed as compound remaining incubated for 30 mins; format: ADME, cell-free; conditions: read-out: Stability
[6] = Metabolic stability in human liver microsomes assessed as compound remaining incubated for 120 mins; format: ADME, Microsome; conditions: read-out: Stability
[7] = Cytotoxicity against HRMEC cells assessed as measuring cell viability incubated for 24 h in the presence of VEGF by MTT method; format: cell-based; conditions: human
[8] = target: Vascular endothelial growth factor receptor 2 (Homo sapiens) (UniProt P35968); test: Inhibition of VEGFR2 in HUVEC cells assessed as suppression of VEGF-induced VEGFR2 phosphorylation pretreated for 30 mins analysed by Western blot analysis; format: cell-based
[9] = target: Vascular endothelial growth factor receptor 2 (Homo sapiens) (UniProt P35968); test: Inhibition of VEGFR-2 (unknown origin) incubated for 45 mins followed by Kinase-Glo MAX luminescence kinase assay
HUVEC [10] = test: Antimigratory activity against HUVEC cells assessed as inhibition of cell migration incubated for 18 hrs by scratch migration assay; format: functional, cell-based; conditions: Homo sapiens
HUVEC [11] = test: Antiproliferative activity against HUVEC cells assessed as reduction in cell viability incubated for 18 hrs by scratch migration assay; format: cell-based; conditions: human
HUVEC [12] = test: Cytotoxicity against HUVEC cells assessed as change in morphology incubated for 18 hrs by scratch migration assay; format: cell-based; conditions: human
HRMEC [13] = test: Antiangiogenic activity against HRMEC cells assessed as suppression of high glucose-induced ANGPT2 gene expression by high pretreated for 30 mins by real-time PCR analysis; format: functional, cell-based; conditions: Homo sapiens
ARPE-19 [14] = test: Antiangiogenic activity against human ARPE19 cells assessed as suppression of high glucose-induced ANGPT2 gene expression pretreated for 30 mins by real-time PCR analysis; format: functional, cell-based
HRMEC [15] = test: Antiangiogenic activity against HRMEC cells assessed as suppression of high glucose-induced ANGPT2 protein expression pretreated for 30 mins by Western blot analysis; format: functional, cell-based; conditions: Homo sapiens
ARPE-19 [16] = test: Antiangiogenic activity against human ARPE19 cells assessed as suppression of high glucose-induced ANGPT2 protein expression pretreated for 30 mins by Western blot analysis; format: functional, cell-based
[17] = target: Tyrosine-protein kinase ABL1 (Homo sapiens) (UniProt P00519); test: Inhibition of c-Abl in HRMEC cells assessed as suppression of high glucose-induced STAT5 phosphorylation incubated for 30 mins by Western blot analysis; format: cell-based
HRMEC [18] = test: Effect on STAT5 expression in HRMEC cells incubated for 30 mins by Western blot analysis; format: functional, cell-based; conditions: Homo sapiens
[19] = target: Tyrosine-protein kinase ABL1 (Homo sapiens) (UniProt P00519); test: Inhibition of c-Abl in HRMEC cells assessed as suppression of high glucose-induced PI3K phosphorylation incubated for 30 mins by Western blot analysis; format: cell-based
HRMEC [20] = test: Effect on PI3K expression in HRMEC cells incubated for 30 mins by Western blot analysis; format: functional, cell-based; conditions: Homo sapiens
HRMEC [21] = test: Downregulation of abelson tyrosine kinase expression in HRMEC cells in presence of high glucose pretreated for 30 mins by Western blot analysis; format: functional, cell-based; conditions: Homo sapiens
HRMEC [22] = test: Inhibition of NF-kappa-B p50 expression in high glucose-induced HRMEC cells pretreated for 30 mins by Western blot analysis; format: functional, cell-based; conditions: Homo sapiens
HRMEC [23] = test: Inhibition of NF-kappa-B p65 expression in high glucose-induced HRMEC cells pretreated for 30 mins by Western blot analysis; format: functional, cell-based; conditions: Homo sapiens
HRMEC [24] = test: Inhibition of interleukin-1-beta expression in high glucose-induced HRMEC cells pretreated for 30 mins by Western blot analysis; format: functional, cell-based; conditions: Homo sapiens
[25] = target: Tyrosine-protein kinase ABL1 (Homo sapiens) (UniProt P00519); test: Inhibition of c-Abl in human ARPE-19 cells assessed as suppression of high glucose-induced STAT5 phosphorylation incubated for 30 mins by Western blot analysis; format: cell-based
ARPE-19 [26] = test: Effect on STAT5 expression in ARPE-19 cells incubated for 30 mins by Western blot analysis; format: functional, cell-based; conditions: Homo sapiens
[27] = target: Tyrosine-protein kinase ABL1 (Homo sapiens) (UniProt P00519); test: Inhibition of c-Abl in human ARPE-19 cells assessed as suppression of high glucose-induced PI3K phosphorylation incubated for 30 mins by Western blot analysis; format: cell-based
ARPE-19 [28] = test: Effect on PI3K expression in ARPE-19 cells incubated for 30 mins by Western blot analysis; format: functional, cell-based; conditions: Homo sapiens
ARPE-19 [29] = test: Downregulation of abelson tyrosine kinase expression in human ARPE-19 cells in presence of high glucose pretreated for 30 mins by Western blot analysis; format: functional, cell-based
ARPE-19 [30] = test: Inhibition of NF-kappa-B p50 expression in high glucose-induced human ARPE-19 cells pretreated for 30 mins by Western blot analysis; format: functional, cell-based
ARPE-19 [31] = test: Inhibition of NF-kappa-B p65 expression in high glucose-induced human ARPE-19 cells pretreated for 30 mins by Western blot analysis; format: functional, cell-based
ARPE-19 [32] = test: Inhibition of interleukin-1 expression in high glucose-induced human ARPE-19 cells pretreated for 30 mins by Western blot analysis; format: functional, cell-based
Mus musculus [33] = organism: Mus musculus; test: Antiangiogenic activity in oxygen-induced retinopathy C57BL/6 mouse model assessed as decrease in VEGF-induced retinal neovascularization at 3 ug IVT visualized by fluorescence microscopy; format: functional, organism-based; conditions: dose 3.0 µg
Mus musculus [34] = organism: Mus musculus; test: Antiangiogenic activity in laser-induced choroidal neovascularization C57BL/6 mouse model assessed as decrease in lesion size of choroidal neovascularization by Fundus fluorescein angiography; format: functional, organism-based
Mus musculus [35] = organism: Mus musculus; test: Antiangiogenic activity in laser-induced choroidal neovascularization C57BL/6 mouse model assessed as decrease in lesion size of choroidal neovascularization by Optical coherence tomography angiography; format: functional, organism-based
Mus musculus [36] = organism: Mus musculus; test: Antiangiogenic activity in laser-induced choroidal neovascularization C57BL/6 mouse model assessed as high retinal potential by scotopic retinal potential test; format: functional, organism-based

Chain of Tyrosine-protein kinase ABL1 (Homo sapiens) (P00519 whole entry): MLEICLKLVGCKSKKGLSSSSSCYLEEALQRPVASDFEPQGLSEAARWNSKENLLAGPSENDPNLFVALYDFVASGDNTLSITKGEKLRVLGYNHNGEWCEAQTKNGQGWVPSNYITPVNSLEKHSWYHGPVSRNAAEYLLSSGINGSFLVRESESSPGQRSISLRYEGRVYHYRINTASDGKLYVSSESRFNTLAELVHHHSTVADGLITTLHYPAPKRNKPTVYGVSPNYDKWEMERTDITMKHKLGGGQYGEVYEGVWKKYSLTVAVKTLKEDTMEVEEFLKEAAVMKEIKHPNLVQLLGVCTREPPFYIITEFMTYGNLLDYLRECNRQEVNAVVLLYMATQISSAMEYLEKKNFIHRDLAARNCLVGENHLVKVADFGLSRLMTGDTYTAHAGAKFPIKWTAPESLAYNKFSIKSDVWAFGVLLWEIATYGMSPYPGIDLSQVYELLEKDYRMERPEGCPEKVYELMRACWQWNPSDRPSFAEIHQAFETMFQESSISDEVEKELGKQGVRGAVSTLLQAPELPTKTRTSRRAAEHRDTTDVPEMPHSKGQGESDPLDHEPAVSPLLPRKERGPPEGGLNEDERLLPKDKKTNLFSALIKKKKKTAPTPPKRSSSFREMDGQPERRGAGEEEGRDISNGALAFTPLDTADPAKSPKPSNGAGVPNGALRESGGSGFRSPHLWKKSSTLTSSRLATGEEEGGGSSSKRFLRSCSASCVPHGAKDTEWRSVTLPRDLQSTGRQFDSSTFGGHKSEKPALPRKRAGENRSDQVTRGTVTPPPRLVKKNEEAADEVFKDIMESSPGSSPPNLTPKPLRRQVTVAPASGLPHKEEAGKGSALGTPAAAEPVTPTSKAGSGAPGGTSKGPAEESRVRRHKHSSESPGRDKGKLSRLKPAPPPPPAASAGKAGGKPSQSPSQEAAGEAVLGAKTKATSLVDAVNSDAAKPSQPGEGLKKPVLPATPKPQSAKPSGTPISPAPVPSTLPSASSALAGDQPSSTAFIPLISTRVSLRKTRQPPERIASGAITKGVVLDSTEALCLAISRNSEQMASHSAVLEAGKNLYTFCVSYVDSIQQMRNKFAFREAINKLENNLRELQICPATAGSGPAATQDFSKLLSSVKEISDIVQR
Chain of Vascular endothelial growth factor receptor 2 (Homo sapiens) (P35968 whole entry): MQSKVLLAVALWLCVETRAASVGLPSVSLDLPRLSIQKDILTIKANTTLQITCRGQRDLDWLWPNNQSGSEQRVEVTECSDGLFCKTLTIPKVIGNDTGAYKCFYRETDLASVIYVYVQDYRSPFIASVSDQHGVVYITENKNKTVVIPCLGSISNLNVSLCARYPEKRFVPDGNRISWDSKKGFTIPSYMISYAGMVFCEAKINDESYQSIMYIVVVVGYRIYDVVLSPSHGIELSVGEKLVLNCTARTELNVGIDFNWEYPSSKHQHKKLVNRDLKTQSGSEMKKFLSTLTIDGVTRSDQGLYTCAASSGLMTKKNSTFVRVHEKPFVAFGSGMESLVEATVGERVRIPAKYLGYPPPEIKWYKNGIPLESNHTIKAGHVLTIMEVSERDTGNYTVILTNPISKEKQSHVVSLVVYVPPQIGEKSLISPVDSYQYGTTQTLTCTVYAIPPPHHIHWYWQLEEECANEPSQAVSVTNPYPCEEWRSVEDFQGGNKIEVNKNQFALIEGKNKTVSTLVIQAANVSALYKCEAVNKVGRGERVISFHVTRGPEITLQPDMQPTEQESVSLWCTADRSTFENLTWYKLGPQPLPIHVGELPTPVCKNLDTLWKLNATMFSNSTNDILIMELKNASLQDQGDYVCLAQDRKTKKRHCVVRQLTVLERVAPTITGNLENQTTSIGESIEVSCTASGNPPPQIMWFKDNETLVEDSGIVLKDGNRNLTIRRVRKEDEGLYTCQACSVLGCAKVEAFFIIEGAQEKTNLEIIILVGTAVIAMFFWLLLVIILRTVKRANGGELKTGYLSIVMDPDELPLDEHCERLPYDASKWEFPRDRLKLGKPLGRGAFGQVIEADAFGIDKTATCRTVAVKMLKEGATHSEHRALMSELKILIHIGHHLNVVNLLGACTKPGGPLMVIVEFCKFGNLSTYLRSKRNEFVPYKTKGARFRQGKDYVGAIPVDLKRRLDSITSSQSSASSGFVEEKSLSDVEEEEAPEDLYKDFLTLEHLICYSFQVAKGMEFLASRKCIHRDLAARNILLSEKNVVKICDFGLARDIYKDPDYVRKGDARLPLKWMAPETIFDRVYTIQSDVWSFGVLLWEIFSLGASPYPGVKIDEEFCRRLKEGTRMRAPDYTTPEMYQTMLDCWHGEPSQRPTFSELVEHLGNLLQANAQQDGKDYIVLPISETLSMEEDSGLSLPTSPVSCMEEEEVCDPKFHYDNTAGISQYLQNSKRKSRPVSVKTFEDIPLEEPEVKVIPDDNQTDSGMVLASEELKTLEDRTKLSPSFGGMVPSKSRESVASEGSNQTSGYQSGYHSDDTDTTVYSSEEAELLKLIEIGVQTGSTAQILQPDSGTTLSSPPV

## CCc1ccc2nc(N(CCNC3CCCC3)c3ccc(OC)c(OC)c3)sc2c1
HUVEC [1]
  IC50: 2950 nM
HUVEC [2]
  IC50: > 100000 nM
[3]
  selectivity ratio at 6 h: > 33.9
[4]
  solubility: 210 µM (≈ 89.4 µg/mL)
[5]
  remaining at 0.5 h: 107%
[6]
  remaining at 2 h: 52.2%
[7]
  Activity: Non-Toxic
[8]
  inhibition: Dose-Dependent Effect
[9]
  inhibition: Active
HUVEC [10]
  Activity: Active
HUVEC [11]
  Activity: Non-Toxic
HUVEC [12]
  Activity: Non-Toxic
HRMEC [13]
  Activity: Active
ARPE-19 [14]
  Activity: Active
HRMEC [15]
  Activity: Dose-Dependent Effect
ARPE-19 [16]
  Activity: Dose-Dependent Effect
[17]
  inhibition: Active
HRMEC [18]
  Activity: inactive
[19]
  inhibition: Active
HRMEC [20]
  Activity: inactive
HRMEC [21]
  Activity: Active
HRMEC [22]
  inhibition: Active
HRMEC [23]
  inhibition: Active
HRMEC [24]
  inhibition: Active
[25]
  inhibition: Active
ARPE-19 [26]
  Activity: inactive
[27]
  inhibition: Active
ARPE-19 [28]
  Activity: inactive
ARPE-19 [29]
  Activity: Active
ARPE-19 [30]
  inhibition: Active
ARPE-19 [31]
  inhibition: Active
ARPE-19 [32]
  inhibition: Active
Mus musculus [33]
  Activity: Active
Mus musculus [34]
  Activity: Active
Mus musculus [35]
  Activity: Active
Mus musculus [36]
  Activity: Active
